From patent US20240132484A1, “BROAD SPECTRUM ANTIVIRAL COMPOUNDS TARGETING THE SKI COMPLEX” (priority 2020, published 2024)

Columns and labels:
[1] = tested on: SARS2; type: cell-based, SARS-CoV-2
[2] = tested on: cells (nuclei count)

With COCC1=C(C(=O)NCC2CCC2)C(c2cccs2)NC(=O)N1 (centres unmarked) [SILCS56] the “Percentage Inhibition Average 1 μM” value ([1]; SARS2, 1 μM) was 31.59%, the “Screening data (Relative infection to DMSO controls) Average 1 μM” value ([1]; SARS2, 1 μM, 100=DMSO control) was 68.41 and the “Percentage Inhibition Average 5 μM” value ([1]; SARS2, 5 μM) was 44.15%. For the same molecule, the “Screening data (Relative infection to DMSO controls) Average 5 μM” value ([1]; SARS2, 5 μM, 100=DMSO control) was 55.85, the “Percentage Inhibition Average 10 μM” value ([1]; SARS2, 10 μM) was 29.24% and the “Screening data (Relative infection to DMSO controls) Average 10 μM” value ([1]; SARS2, 10 μM, 100=DMSO control) was 70.76. The “Percentage Inhibition Average 25 μM” value ([1]; SARS2, 25 μM) was 2.27%, the “Screening data (Relative infection to DMSO controls) Average 25 μM” value ([1]; SARS2, 25 μM, 100=DMSO control) was 97.73 and the “Percentage Inhibition Average 50 μM” value ([1]; SARS2, 50 μM) was −21.04%. The “Screening data (Relative infection to DMSO controls) Average 50 μM” value ([1]; SARS2, 50 μM, 100=DMSO control) was 121.04, the “Average (relative infection to DMSO over the 5 tested concentrations)” value ([1]; SARS2, average over 1 to 50 uM, 100=DMSO control) was 82.76 and the “Relative cell count to DMSO controls, Average 1 μM” value ([2]; 1 μM, toxicity data, 100=DMSO control) was 120.34. The “Relative cell count to DMSO controls, Average 5 μM” value ([2]; 5 μM, toxicity data, 100=DMSO control) was 119.22, the “Relative cell count to DMSO controls, Average 10 μM” value ([2]; 10 μM, toxicity data, 100=DMSO control) was 119.65 and the “Relative cell count to DMSO controls, Average 25 μM” value ([2]; 25 μM, toxicity data, 100=DMSO control) was 104.41. For the same molecule, the “Relative cell count to DMSO controls, Average 50 μM” value ([2]; 50 μM, toxicity data, 100=DMSO control) was 89.59 and the “Relative cell count to DMSO controls, Average (for correlation analysis)” value ([2]; average value over the 5 tested concentrations (1 to 50 uM)) was 110.64.
